Test results as given in ChEMBL document CHEMBL1136597, “A structure-permeability study of small drug-like molecules” (Bioorg Med Chem Lett, 2003).

experiment: Partition coefficient (logD7.4) measured using octanol and PBS at pH7.4; assay type: physicochemical; details: pH 7.4, read-out: LogD7.4

Row | SMILES | logD
1 | NCc1cccc(Cc2ncccn2)c1 | -1.11
2 | O=C(O)c1cccc(Cc2ncccn2)c1 | -1.98
3 | O=C(O)c1ccc(Cc2ncccn2)cc1 | -2.2
4 | O=C(O)c1cccc(Cn2cccn2)c1 | -1.62
5 | NC(=O)c1cccc(Cn2ccnc2)c1 | -0.01
6 | NC(=O)c1cccc(Cn2cccn2)c1 | 0.71
7 | O=C(O)Cc1ccc(Cn2cccn2)cc1 | -1.8
8 | c1ccc(Cn2ccnc2)cc1 [BENZYLIMIDAZOLE] | 1.78
9 | O=C(O)c1ccc(Cn2cccn2)cc1 | -1.65
10 | N#Cc1cccc(Cn2cccn2)c1 | 1.74
11 | N#Cc1cccc(Cn2ccnc2)c1 | 1.01
12 | O=C(O)Cc1ccc(Cn2ccnc2)cc1 | -2.37
13 | c1cnc(Cc2cccc(-c3nn[nH]n3)c2)nc1 | -1.28
14 | NCc1cccc(Cn2cccn2)c1 | -0.77
15 | NC(=O)c1cccc(Cc2ncccn2)c1 | 0.28
16 | N#Cc1cccc(Cc2ncccn2)c1 | 1.46

Continued, values first:

Row | logD | SMILES
17 | 0.21 | NCc1cccc(Cn2cnc3ccccc32)c1
18 | 1.7 | NC(=O)c1cccc(Cn2cnc3ccccc32)c1
19 | -0.61 | O=C(O)c1ccc(Cn2cnc3ccccc32)cc1
20 | 1.04 | NS(=O)(=O)c1ccc(Cn2cnc3ccccc32)cc1
21 | 0.27 | c1cc(Cn2cnc3ccccc32)cc(-c2nn[nH]n2)c1
22 | 2.91 | c1ccc(Cn2cnc3ccccc32)cc1
23 | -1.13 | O=C(O)Cc1ccc(Cn2cnc3ccccc32)cc1
24 | 2.47 | N#Cc1cccc(Cn2cnc3ccccc32)c1

experiment: Distribution coefficient of octanol and phosphate buffered saline at pH 7.4; assay type: physicochemical; details: read-out: Log Doct/PBS

Row | SMILES | logD
25 | O=C(O)c1ccc(Cn2ccnc2)cc1 | -2.1
26 | N=C(N)c1cccc(Cc2ncccn2)c1 | -1.03

Further lines, results first:

Row | logD | SMILES
27 | 1.92 | Nc1cccc(Cn2cnc3ccccc32)c1
28 | 1.78 | O=S(=O)(O)c1ccc(Cn2cnc3ccccc32)cc1
29 | -0.72 | O=C(O)c1cccc(Cn2cnc3ccccc32)c1
30 | 2.08 | CS(=O)(=O)Nc1cccc(Cn2cnc3ccccc32)c1

experiment: Permeability directional ratio (PB-A/PA-B) in Caco-2 cell; assay type: ADME, cell-based; details: human, read-out: PDR

Row | SMILES | efflux ratio
31 | O=C(O)c1ccc(Cn2ccnc2)cc1 | 1
32 | N=C(N)c1cccc(Cc2ncccn2)c1 | 3
33 | c1cnc(Cc2cccc(-c3nn[nH]n3)c2)nc1 | 20

Other lines, results leading:

Row | efflux ratio | SMILES
34 | 7 | O=S(=O)(O)c1ccc(Cn2cnc3ccccc32)cc1
35 | 180 | c1ccc(-c2nn[nH]n2)c(Cn2cnc3ccccc32)c1
36 | 129 | c1ccc2c(c1)ncn2Cc1ccc(-c2nn[nH]n2)cc1
37 | 3 | O=C(O)c1cccc(Cn2cnc3ccccc32)c1
38 | 145 | c1cc(Cn2cnc3ccccc32)cc(-c2nn[nH]n2)c1
